Test results reported in EP4755886A1 (Chengdu Chipscreen Pharmaceutical Ltd., priority 2023, dated 2025).
Like-named read-outs stand apart in the source and are kept apart here.

Experiments:
[1] = molecular target: T1, CYP450 enzyme 3A4 (Homo sapiens, UniProt P08684); test: CYP inhibition test in human liver microsomes; type: in vitro ADME; details: human liver microsomes 0.1 mg/mL
T1 construct: Liver microsomes (purchased from BIOIVT, Cat. No.: X008070); tissue BIOIVT X008070; host or cells: human liver microsomes
T1 sequence (P08684 whole entry): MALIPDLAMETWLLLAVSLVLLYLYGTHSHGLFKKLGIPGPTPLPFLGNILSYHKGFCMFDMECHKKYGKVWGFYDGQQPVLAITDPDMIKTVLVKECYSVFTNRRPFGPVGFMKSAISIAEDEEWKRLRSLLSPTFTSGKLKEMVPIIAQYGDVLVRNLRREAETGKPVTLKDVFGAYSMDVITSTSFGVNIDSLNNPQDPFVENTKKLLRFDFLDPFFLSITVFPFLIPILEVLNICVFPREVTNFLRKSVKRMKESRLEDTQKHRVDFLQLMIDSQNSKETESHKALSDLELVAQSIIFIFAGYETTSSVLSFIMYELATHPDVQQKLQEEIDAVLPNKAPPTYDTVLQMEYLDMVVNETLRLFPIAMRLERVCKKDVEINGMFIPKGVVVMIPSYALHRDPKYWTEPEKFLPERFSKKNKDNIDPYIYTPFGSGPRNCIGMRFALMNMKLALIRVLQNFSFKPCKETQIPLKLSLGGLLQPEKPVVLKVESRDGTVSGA
Protocol: Experimental materials: human liver microsomes (purchased from BIOIVT);
PBS: 0.1 M KH2PO4 and K2HPO4 buffers, pH 7.4.
MgCl2: a certain amount of MgCl2 was weighed out and prepared into a 20 mM MgCl2 solution with PBS.
NADPH (Chinese name: reduced nicotinamide adenine dinucleotide phosphate, purchased from Sigma, Cat. No.: 481973-500 mg): a certain amount of NADPH was weighed out and a 5 mM solution of NADPH was prepared with a 20 mM MgCl2 solution, and the final incubation concentration was 1 mM.
Compounds: 3 mM, 1 mM, 0.3 mM, 0.1 mM, 0.03 mM, 0.01 mM, and 0 mM solutions of the test compounds were prepared with a DMSO-methanol (v:v = 1:9) solution, and the final incubation concentrations were 30 µM, 10 µM, 3 µM, 1 µM, 0.3 µM, 0.1 µM, and 0 µM. 30 µM, 10 µM, 3 µM, 1 µM, 0.3 µM, and 0 µM solutions of the positive compound (ketoconazole) were prepared with a DMSO-methanol (v:v = 1:9) solution, and the final incubation concentrations were 0.3 µM, 0.1 µM, 0.03 µM, 0.01 µM, 0.003 µM, and 0 µM.
Substrate working solutions: 200 µM and 15 µM solutions of substrate working solutions (testosterone and midazolam) were prepared with PBS, separately, and the final incubation concentrations were 40 µM and 3 µM.
Liver microsomes (purchased from BIOIVT, Cat. No.: X008070): the liver microsomes were diluted to […] with PBS, and the final incubation concentration was 0.1 mg/mL.
The prepared test compounds or positive compounds were added to a 96-well plate, and then the prepared human liver microsome working solution and substrate working solution were added. The mixture was mixed well. The mixture was pre-incubated in a thermostat incubator at 37 °C for 5 min, and then the prepared NADPH was added to start the reaction. The mixture was incubated for 5 min or 10 min. After the incubation was completed, a pre-cooled acetonitrile solution containing an internal standard was added to terminate the reaction. After protein precipitation, the mixture was vortexed for 5 min with shaking and then centrifuged at 4000 rpm for 10 min. The supernatant was collected and added to the 96-well plate. The content (peak concentration ratio) of the metabolites of the substrate was determined by an LC-MS/MS method. The residual activity and the half maximal inhibitory concentration (IC50) of the enzyme were calculated based on the detected content.
Percentage of remaining enzyme activity: The activity of each subtype of CYP450 enzyme was expressed as the amount of metabolite produced, and the percentage of remaining enzyme activity was calculated as follows: [formula]
The concentrations of the test substances and the corresponding residual activity percentages were fitted using a nonlinear model of Excel software, and the concentration of the test substances at which 50% inhibition of metabolite production was achieved was the IC50 value.

[2] = test system: wild-type HCT-116 cells; test: Cell proliferation (MTS), wild-type HCT-116; type: cell-based; details: Homo sapiens, 240 h; wild-type HCT-116, 10 days with compound, MTS reading; read-out: IC50 HCT116 WT
Summary of the method: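 Wild-type HCT-116 cells were seeded at 100 cells/well in McCoy's 5A/10% FBS. From day 1 they were treated with compound in 3-fold dilutions (initial 20 µM, 8 points) for 10 days at 37° C. Proliferation was read by MTS on day 11, and IC50 was obtained from a four-parameter logistic fit.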

[3] = molecular target: T2, hERG (Homo sapiens, UniProt Q12809); test: hERG test (Predictor hERG Fluorescence Polarization Assay Kit); type: binding; details: for inhibition at 3.5 h, 10 µM: 10 µM test substance, three duplicate wells; for IC50: only 10 µM tested
T2 construct: purchased ThermoFisher Scientific PV5365
T2 sequence (Q12809 whole entry): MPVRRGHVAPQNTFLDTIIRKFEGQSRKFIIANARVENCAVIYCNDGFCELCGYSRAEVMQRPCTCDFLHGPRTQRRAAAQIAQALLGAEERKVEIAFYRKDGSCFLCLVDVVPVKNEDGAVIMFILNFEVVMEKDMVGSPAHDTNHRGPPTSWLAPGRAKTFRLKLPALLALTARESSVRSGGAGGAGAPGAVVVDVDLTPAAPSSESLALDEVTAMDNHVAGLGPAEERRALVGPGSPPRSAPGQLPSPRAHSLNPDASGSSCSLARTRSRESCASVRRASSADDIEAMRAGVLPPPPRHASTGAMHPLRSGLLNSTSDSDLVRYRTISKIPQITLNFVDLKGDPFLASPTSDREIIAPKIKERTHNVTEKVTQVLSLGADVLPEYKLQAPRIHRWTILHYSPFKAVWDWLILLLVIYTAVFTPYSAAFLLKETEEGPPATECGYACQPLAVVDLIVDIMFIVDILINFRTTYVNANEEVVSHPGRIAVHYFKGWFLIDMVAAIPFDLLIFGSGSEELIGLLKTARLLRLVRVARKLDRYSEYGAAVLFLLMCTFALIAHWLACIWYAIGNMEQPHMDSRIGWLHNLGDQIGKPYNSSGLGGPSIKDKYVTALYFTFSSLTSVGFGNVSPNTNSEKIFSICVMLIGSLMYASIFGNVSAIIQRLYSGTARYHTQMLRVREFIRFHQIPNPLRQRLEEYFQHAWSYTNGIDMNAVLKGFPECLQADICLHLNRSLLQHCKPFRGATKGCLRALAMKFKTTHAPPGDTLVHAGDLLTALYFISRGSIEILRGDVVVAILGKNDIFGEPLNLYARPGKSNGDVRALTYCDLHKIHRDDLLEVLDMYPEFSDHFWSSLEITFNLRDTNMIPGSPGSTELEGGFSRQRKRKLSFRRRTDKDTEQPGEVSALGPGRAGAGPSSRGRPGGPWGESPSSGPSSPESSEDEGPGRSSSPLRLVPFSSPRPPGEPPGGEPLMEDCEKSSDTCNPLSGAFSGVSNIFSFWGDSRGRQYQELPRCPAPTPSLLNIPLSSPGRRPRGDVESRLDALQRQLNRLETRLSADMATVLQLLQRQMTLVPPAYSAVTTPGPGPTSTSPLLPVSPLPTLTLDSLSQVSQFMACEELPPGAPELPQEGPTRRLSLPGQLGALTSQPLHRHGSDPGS
Summary of the method: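 Fluorescence polarization tracer displacement using hERG membranes and Tracer Red, test compound at 10 µM final, E-4031 as positive control, triplicate wells. Incubated 3.5 h at 25 °C in the dark; mP read (G factor 2.14) and percent inhibition calculated.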

[4] = substrate midazolam 3 µM, read-out: IC50 3A4-Midazolam
[5] = substrate testosterone 40 µM, read-out: IC50 3A4-Testosterone
[6] = human, probe Predictor hERG Tracer Red

IC50 [1, 4] [µM] | IC50 [1, 5] [µM] | IC50 [2] [µM] | SMILES | inhibition at 3.5 h, 10 µM [3, 6] [%] | IC50 [3] [µM] | inhibition at 3.5 h, 10 µM ([3]; herg membrane fluorescence polarization) [%]
> 30 | > 30 | 0.646 | CN(C(=O)c1cc2c3c(c(N)nc2cc1Cl)COC3)[C@@H]1COc2cc(C#Cc3cnn(C4CC4)c3)ccc21 [Compound 43A, (S)-4-amino-7-chloro-N-(6-((1-cyclopropyl-1H-pyrazol-4-yl)ethynyl)-2,3-dihydrobenzofuran-3-yl)-N-methyl-1,3-dihydrofuro[3,4-c]quinoline-8-carboxamide] | 30.3 ± 29.9 | > 10 | 
> 30 | > 30 | 0.431 | Cc1nn(C)cc1C#Cc1ccc2c(c1)OC[C@H]2N(C)C(=O)c1cc2c3c(c(N)nc2cc1Cl)COC3 [Compound 50A, (S)-4-amino-7-chloro-N-(6-((1,3-dimethyl-1H-pyrazol-4-yl)ethynyl)-2,3-dihydrobenzofuran-3-yl)-N-methyl-1,3-dihydrofuro[3,4-c]quinoline-8-carboxamide] | 22.4 | > 10 | 

SMILES | IC50 [1, 4] [µM] | IC50 [1, 5] [µM] | IC50 [2] [µM] | inhibition at 3.5 h, 10 µM [3, 6] [%] | IC50 [3] [µM] | inhibition at 3.5 h, 10 µM ([3]; herg membrane fluorescence polarization) [%]
CN(C(=O)c1cc2c(cc1F)nc(N)c1cnn(C)c12)[C@@H]1COc2cc(C#Cc3cnn(C)c3)ccc21 [Compound 5A, (S)-4-amino-7-fluoro-N,1-dimethyl-N-(6-((1-methyl-1H-pyrazol-4-yl)ethynyl)-2,3-dihydrobenzofuran-3-yl)-1H-pyrazolo[4,3-c]quinoline-8-carboxamide] | > 30 | > 30 | 0.17 |  | > 10 | 27.7
